Measured values from patent US6420367B1, “Pyrimidine derivatives exhibiting antitumor activity” (Shionogo & Co., Ltd., priority 1998, dated 2002).
≈ marks a conversion by molar mass, not a printed value.

Assays:
[1] = tested on: human lung cancer RERF-LC-AI; assay: Evaluation of in vivo antitumor efficacy, tumor growth inhibition; conditions: RERF-LC-AI in Balb/c nude mice; 30 mg/kg orally daily for 14 days; P<0.01
Excerpt: (§1) Test Example 3 Evaluation of in Vivo Antitumor Efficacy
(§2) Murine colon cancer Colon 26, human lung cancer RERF-LC-AI and human lung cancer Ma44 were used. Murine- and human-derived tumor cells were maintained by serial transplantation in Balb/c and Balb/c nude mice, respectively. After tumor implantation, compound A-42 suspended in 5% methylcellulose solution were orally administered daily for 14 days. Tumor size (short diameter and long diameter) was scored throughout the experiment and tumor volume was calculated. Antitumor efficacy was evaluated as growth inhibition which was estimated by Treated/Control ratio and shown as % inhibition.

human colon cancer HT29 = assay: In vitro cell growth inhibition test, MTT assay; type: cell-based; conditions: MTT assay 4 days after compound addition
In short: (§3)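 In vitro testing uses the MTT assay. The same panel includes human pancreas cancer PANC-1.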

[2] = tested on: human squamous lung cancer RERF-RC-AI; assay: In vitro cell growth inhibition test, MTT assay; type: cell-based; conditions: MTT assay 4 days after compound addition
In short: as §3

[3] = tested on: human squamous lung cancer Ma44; assay: In vitro cell growth inhibition test, MTT assay; type: cell-based; conditions: MTT assay 4 days after compound addition
In short: as §3

[4] = tested on: DT-R cells (pRRE3-luc-transfected v-ki-ras-transformed NIH3T3 cells); signal derived from Ras oncogene products; assay: Inhibitory effect against cellular signaling derived from Ras oncogene products: luciferase reporter, dissociation of DT-R from DT-C activity (MAC); type: cell-based, mouse; conditions: minimal tested concentration at which luciferase activities of DT-C cells and DT-R cells dissociated
In short: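 DT-R (pRRE3-luc) and control DT-C (pGV-P) v-Ki-ras NIH3T3 cells were exposed 24 h to compound in 3-fold dilutions in DMEM/10% FCS at 37 °C, then lysed for luciferase luminescence. MAC is the lowest tested concentration at which DT-R and DT-C activities dissociate.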

[5] = tested on: DT-C cells (pGV-P-transfected v-ki-ras-transformed NIH3T3 cells); assay: Luciferase activity in control DT-C cells (IC50-C): non-specific transcription-inhibitory effect or cytotoxicity; type: cell-based, mouse; conditions: tested concentration nearest to 50% inhibition in DT-C cells, index of non-specific transcription inhibition or cytotoxicity
In short: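 Luciferase from an SV40 minimal promoter was read in DT-C cells (2500 cells/well) 24 h after compound addition at […] to 0.51 ng/ml in 3-fold steps. IC50-C is the tested concentration nearest 50% inhibition.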

[6] = tested on: Murine colon cancer Colon 26; assay: Evaluation of in vivo antitumor efficacy, tumor growth inhibition; parameters: species or system mouse; conditions: Colon 26 in Balb/c mice; 30 mg/kg orally daily for 14 days; P<0.01
Excerpt: as §1, §2

human lung cancer Ma44 = assay: as above; parameters: species or system mouse; conditions: Ma44 in Balb/c nude mice; 30 mg/kg orally daily for 14 days; P<0.01
Excerpt: as §1, §2

[7] = tested on: human lung adenocarcinoma A549; assay: In vitro cell growth inhibition test, MTT assay; type: cell-based; conditions: MTT assay 4 days after compound addition
In short: as §3

[8] = tested on: human pancreas cancer PANC-1; assay: In vitro cell growth inhibition test, MTT assay; type: cell-based; conditions: MTT assay 4 days after compound addition
In short: as §3

Row | Structure (SMILES) | Growth inhibition (Treated/Control ratio, shown as % inhibition) [1] [%] | IC50, HT29 (human colon cancer HT29) [mg/L] | IC50, RERF-LC-AI [2] [mg/L] | IC50, Ma44 [3] [mg/L] | MAC (Minimal Active Concentration) [4] [µg/mL] | IC50-C [5] [mg/L] | Growth inhibition (Treated/Control ratio, shown as % inhibition) [6] [%] | Growth inhibition (Treated/Control ratio, shown as % inhibition) (human lung cancer Ma44) [%] | IC50, A549 [7] [mg/L] | IC50, PANC-1 [8] [mg/L] | IC50 ([7]; Homo sapiens, A549, 96 h) [mg/L] | IC50 (human colon cancer HT29; Homo sapiens, HT-29, 96 h) [mg/L] | IC50 ([2]; Homo sapiens, 96 h, read-out: IC50, RERF-LC-AI) [mg/L] | IC50 ([3]; Homo sapiens, 96 h) [mg/L] | IC50 ([8]; Homo sapiens, PANC-1, 96 h) [mg/L] | melting point [°C] | IC50 ([5]; Mus musculus, NIH3T3) [mg/L]
1 | CCNC(=Nc1nc(C)ncc1CSc1nnc(-c2ccc(N)cc2)o1)NCC [Compound A-42] | 74 | 0.011 (≈ 0.0267 µM) | 0.0083 (≈ 0.0201 µM) | 0.049 (≈ 0.119 µM) | 0.0137 | >10 | 70 | 66 | – | – | – | – | – | – | – | – | –
2 | CCNC(=Nc1nc(C)ncc1CSc1nnc(-c2ccsc2N)o1)NCC [Compound D-8] | – | 0.03 (≈ 0.0717 µM) | 0.012 (≈ 0.0287 µM) | 0.036 (≈ 0.086 µM) | 0.0412 | >10 | – | – | 0.027 (≈ 0.0645 µM) | 0.013 (≈ 0.0311 µM) | – | – | – | – | – | – | –
3 | CCNC(=Nc1ncncc1CSc1nnc(-c2ccncc2N)o1)NCC [Compound D-37] | – | 0.015 (≈ 0.0375 µM) | 0.011 (≈ 0.0275 µM) | 0.024 (≈ 0.0601 µM) | 0.123 | >10 | – | – | 0.028 (≈ 0.0701 µM) | 0.013 (≈ 0.0325 µM) | – | – | – | – | – | – | –
4 | CCNC(=Nc1ncncc1CSc1nnc(-c2ccncc2)o1)NCC [Compound D-41] | – | 0.04 (≈ 0.104 µM) | 0.024 (≈ 0.0624 µM) | 0.055 (≈ 0.143 µM) | 1.11 | >10 | – | – | 0.07 (≈ 0.182 µM) | 0.049 (≈ 0.127 µM) | – | – | – | – | – | – | –
5 | CCN/C(=N\c1nc(C)ncc1CSc1nnc(-c2ccc([N+](=O)[O-])cc2)o1)SC [Compound G-1] | – | – | – | – | 0.370 | – | – | – | – | – | 0.063 (≈ 0.141 µM) | 0.052 (≈ 0.117 µM) | 0.046 (≈ 0.103 µM) | 0.056 (≈ 0.126 µM) | 0.051 (≈ 0.114 µM) | 156 to 157 | > 10
